This note sets out measurements from patent US8481555B2, “Aza-bicyclic amine N-oxide compounds as alpha-7 nicotinic acetylcholine receptor ligand pro-drugs” (Bristol-Myers Squibb Company, priority 2010, dated 2013).

Where two headings read alike, the source gives them in different places.

The nature of series [1]: Conversion of Compound B to Compound A in the rat (intra-duodenal infusion, portal vein sampling). The format is in vivo, male Sprague-Dawley rats. Particulars: intra-duodenal infusion of Compound B 10 mg/kg, analyte as labelled; for AUC(0-t): 10 mg/kg; for AUC(0-t) / Cmax: fasted, PVC collection, plasma. The method, then: (§1) The following section details the liquid chromatography with tandem mass spectrometry (LC/MS/MS)-based bioanalytical methods developed to support the analysis of the in vivo biological samples (brain, plasma, urine) from studies conducted in the dog and rat.
(§2) Sample Preparation: Blood, Plasma, Serum, Urine. Plasma and blood samples were prepared as described below. If dilutions were required, an aliquot of the sample was diluted into the respective matrix. For the analysis of urine samples, an aliquot was first diluted into blank plasma and then treated as described below.
(§3) Sample preparation was conducted manually or on a Packard MultiPROBE automated liquid handler. The internal standard (IS) solution (1000 nM (S,E)-5-bromo-N-(1′-azaspiro[oxazolidine-5,3′-bicyclo[2.2.2]octane]-2-ylidene)pyrazin-2-amine) was prepared in acetonitrile. Two hundred microliters of the IS solution was added to each well of a Strata protein precipitation filter plate (Phenomenex, Torrance, Calif.). Biological samples (60 μL) were added to the filter plate. The filter plate was attached atop a standard 96 well plate and the entire unit was centrifuged at 1100 rpm for 2 minutes. The supernatant was collected in the 96 well plate. Five microliters of each sample was injected onto the LC/MS/MS system for analysis.
(§4) Instrumentation. The UHPLC system used was an Agilent 1200 series (Agilent Technologies, Wilmington, Del.) coupled with CTC Analytics HTS PAL Auto Sampler (Leap Technologies, Carrboro, N.C.) that was equipped with a cooling stack so that samples were maintained at 10° C. during analysis. The analytical column used was a Waters Acquity HSS T3 (2.1×50 mm, 1.8 um particles) at 60° C. The mobile phase, which consisted of 0.1% formic acid in water (A) and 0.1% formic acid in acetonitrile (B), was delivered at a flow rate of 0.6 mL/min.
(§5) The UHPLC was interfaced to an API4000 QTrap LC/MS/MS System® (AppliedBiosystems/MDS Sciex, Foster City, Calif.) equipped with an electrospray ionization interface operating in the positive ionization mode. The source temperature was 500° C. Detection of each analyte was achieved through selected reaction monitoring. Ions representing the precursor (M+H)^+ species for Compound A, Compound B, and the IS were selected in quadrupole 1 and collisionally dissociated with nitrogen to generate specific product ions, which were subsequently monitored by quadrupole 3.
(§6) Standard Curve Ranges. Unless otherwise specified, the analysis of Compound A and Compound B were conducted against a standard curve ranging from 0.6 to 1,250 nM and 4.8 to 5,000 nM, respectively. The standard curve was fitted with a linear regression weighted by the square of the reciprocal concentration (1/x^2). Standards were analyzed in duplicate. Quality control samples were prepared in blank biological matrix at concentration levels within the range of the standard curve. The predicted concentrations of more than 80% of the QCs from various different matrices were within 20% of nominal values, indicating acceptable assay performance.
Conversion of N-oxide, Compound B, to Compound A in the rat. The conversion of Compound B to Compound A was evaluated in male Sprague-Dawley rats (260-280 g) Animals (N=3 per group) received Compound B as an intra-duodenal infusion (10 mg/kg over 10 minutes) via an indwelling intra-duodenal cannula (IDC) with collection via the intra-portal vein. Serial blood samples were obtained predose and at 0.17, 0.25, 0.5, 0.75, 1, 2, 4, 6, 8, and 24 hours post dose. Plasma samples, obtained by centrifugation at 4° C. (1500-2000×g), were stored at −20° C. until analysis.
All conversion studies in rats were performed in animals containing indwelling cannulas in the duodenum and portal vein. The studies were designed to isolate the role of the GI tract in the reduction of Compound B. Table IV summarizes the exposure of Compound B and Compound A in the portal vein following an intra-duodenal infusion of Compound B in the rat. […]

Series [2] can be described thus: Conversion of Compound B to Compound A in the dog (IV infusion and oral gavage, crossover). The format is in vivo, male beagle dogs. As to conditions: for AUC(0-t): analyte as labelled, read-out: AUC(0-24 h). The method, then:
as §1, §2, §3, §4, §5, §6
Conversion of N-oxide, Compound B, to Compound A in the dog. The conversion of Compound B to Compound A was evaluated in a crossover-design study in male beagle dogs. Three animals (5 to 8 kg) received Compound B by IV infusion (1 mg/kg over 5 minutes) via a cephalic vein and by oral gavage (5 mg/kg), with a 1-week washout between treatments. Serial blood samples (˜0.3 mL) were collected from a saphenous vein predose and at (0.083, 0.17 IV only), 0.25, 0.5, 0.75, 1, 2, 4, 6, 8, and 24 hours post dose, followed by centrifugation at 4° C. (1500-2000×g) to obtain plasma. Samples were stored at −20° C. until analysis by LC/MS/MS.
Table VI summarizes the PK parameters of Compound B and the appearance of Compound A following a single dose in dogs. Following either an IV or PO dose, the conversion of Compound B to Compound A was observed; however, it was more extensive after oral dosing. […]

Assay in series [3]: as above
In kind it is in vivo, male beagle dogs. Particulars: plasma.

The mark [4] stands for this setting: male, Sprague-Dawley, in vivo, read-out: AUC(0-4).
[5] abbreviates: male, Sprague-Dawley, in vivo, read-out: Plasma concentration in the portal vein.
The mark [6] stands for this setting: fed, IV infusion of Compound B 1 mg/kg, plasma.
[7] abbreviates: male, beagle, fasted, oral gavage of Compound B 5 mg/kg, plasma.
Setting [8] is: male, beagle, fed, IV infusion of Compound B 1 mg/kg, plasma.

Take `[O-][N+]12CCC(CC1)[C@]1(CN=C(Nc3cc4ccccc4cn3)O1)C2` [Compound B, (S)-2-(Isoquinolin-3-ylamino)-4H-1′-azaspiro[oxazole-5,3′-bicyclo[2.2.2]octane]1′-oxide]: the “Plasma concentration in the portal vein” value in series [1] (6 hours) is “< LLQ”. The “Plasma concentration in the portal vein” value in series [1] (8 hours) is “< LLQ”. The “Plasma concentration in the portal vein” value in series [1] (24 hours) is reported as “< LLQ”. Also, in series [1] (setting [4]), the AUC(0-t) was found to be 340 ± 40 nM·h. The Cmax in series [1] (male, Sprague-Dawley, in vivo) worked out at 0.76 ± 0.24 µM. In series [1] (setting [5]), the concentration at 0.167 h amounted to 0.601 µM, the concentration at 0.25 h is 0.758 µM, the concentration at 0.5 h worked out at 0.177 µM and the concentration at 0.75 h was 0.09 µM. For the same compound, in series [1] (setting [5]), the concentration at 1 h was 0.069 µM, the concentration at 2 h is 0.052 µM and the concentration at 4 h was found to be 0.018 µM. For the same compound, in series [2] (setting [6]), the CLTp came out at 0.822 ± 0.24 L/h/kg and the T-HALF worked out at 9.4 ± 6.5 h. Further, in series [2] (setting [7]), the AUC(0-inf) is 5690 ± 390 nM·h, the Cmax is 0.85 ± 0.46 µM and the AUC(0-t) came to 5160 ± 680 nM·h. Further, in series [2] (setting [8]), the area under the curve AUC(0-inf) came out at 3940 ± 1010 nM·h and the AUC(0-t) worked out at 3840 ± 920 nM·h. Besides, the Vd in series [2] (male, beagle, fed, IV infusion of Compound B 1 mg/kg, plasma, read-out: Vss) is 2 ± 0.2 L/kg. The bioavailability in series [2] (male, beagle, plasma, fasted, oral gavage of Compound B 5 mg/kg) worked out at 27 ± 15%.

Regarding `c1ccc2cc(NC3=NC[C@@]4(CN5CCC4CC5)O3)ncc2c1` [Compound A, (R)—N-(isoquinolin-3-yl)-4H-1′-azaspiro[oxazole-5,3′-bicyclo[2.2.2]octan]-2-amine], the AUC(0-t) in series [1] (setting [4]) was 1220 ± 1100 nM·h. In addition, the AUC(0-t) in series [1] (male, Sprague-Dawley, in vivo, read-out: AUC(0-24 h)) was 2550 ± 1930 nM·h. Moreover, the peak level in series [1] (male, Sprague-Dawley, in vivo) (Cmax) was 0.86 ± 0.34 µM. Besides, in series [1] (setting [5]), the concentration at 0.167 h was found to be 0.003 µM, the concentration at 0.25 h was 0.007 µM, the concentration at 0.5 h is 0.112 µM and the concentration at 0.75 h is 0.207 µM. In series [1] (setting [5]), the concentration at 1 h was found to be 0.448 µM, the concentration at 2 h was determined as 0.75 µM and the concentration at 4 h is 0.455 µM. Further, the concentration at 6 h in series [1] (male, Sprague-Dawley, in vivo, 6 hours, read-out: Plasma concentration in the portal vein) is 0.434 µM. Further, in series [1] (male, Sprague-Dawley, in vivo, 8 hours, read-out: Plasma concentration in the portal vein), the concentration at 8 h is 0.125 µM. The concentration at 24 h in series [1] (male, Sprague-Dawley, in vivo, 24 hours, read-out: Plasma concentration in the portal vein) was found to be 0.006 µM. In addition, the “AUC of Compound A after IV Compound B as percent of the AUC of Compound A after IV administration of Compound A” value in series [2] (IV) was around 3%. Also, the “AUC of Compound A after PO Compound B as percent of the oral AUC of Compound A after PO Compound A alone” value in series [2] (PO) is given as “roughly 40%”. Besides, in series [2] (setting [7]), the AUC(0-t) came to 700 ± 200 nM·h. The AUC(0-t) in series [2] (setting [8]) came out at 30 nM·h. In series [3] (male, beagle, PO dosing of Compound B (10 mg/kg as printed in text), read-out: plasma AUC of Compound A after PO dosing of Compound B), the AUC was determined as 700 nM·h. In addition, the AUC in series [3] (PO administration of Compound A alone, read-out: oral AUC of Compound A following PO administration of Compound A alone) came to 1740 nM·h.

A word on the Cmax: it is the peak of the concentration-time curve. The AUC(0-inf) is total exposure, with the tail of the curve extrapolated. Lower therefore signals less exposure. A word on the bioavailability: it is dose-corrected exposure relative to a reference, in per cent. Low values mean poor availability, high ones good availability.
